From US20130190223A1, “NONIMMUNOSUPPRESSIVE CYCLOSPORINE ANALOGUE MOLECULES” (ISOTECHNIKA PHARMA INC., priority 2008, published 2013)

Experiments:
human lymphocytes = assay: Immunosuppressive potency: inhibition of proliferation of anti-CD3 stimulated human lymphocytes (CFSE, flow cytometry); assay type: cell-based; settings: relative potency: IC50 for inhibition of cell division normalized to CsA, 3 days incubation
Method: The immunosuppressive potency of test compounds was assessed by measuring their ability to inhibit the proliferation of human lymphocytes in cell culture. Lymphocytes were isolated from blood of normal human volunteers by Ficoll-gradient centrifugation and stained with 2 μg/ml carboxyfluoroscein diacetate succinimydyl ester (CFSE), a fluorescent cell division tracer molecule. Cells were stimulated through the CD3/T-cell receptor by seeding cells at 300,000/well into 96-well flat-bottom, high-binding plates coated with 1 μg/ml UCHT-1 anti-human CD3 antibody. Test compounds were prepared first as 10 mg/ml stock solutions in dimethylsulfoxide (DMSO). Test solutions were prepared by 500-fold dilution of the DMSO stock solutions, then 3-fold serial dilutions in cell culture medium (RPMI+5% FBS+penicillin-steptomycin) for a total of 7 concentrations per compound. Test solutions were added in equal volume to the culture wells containing cells to achieve final concentrations after dilution of 13.7 ng/ml-10,000 ng/ml. […] Following 3 days incubation cells were stained with CD95-APC (lymphocyte activation marker) and analyzed by flow cytometry with a Becton Dickinson FACSCalibur. Percentage cell division was assessed in forward/side-scatter-gated lymphocytes by measuring the proportion of cells that underwent one or more cell divisions as determined by serial halving of CFSE intensity. The nondivided parent population was determined from samples maintained in culture without anti-CD3 stimulation. IC50 values for inhibition of cell division were determined by nonlinear regression analysis. […]

CyP-D = biological target: T1, CyP-D (Rattus norvegicus, UniProt P29117); assay type: biochemical; settings: mitochondria isolated from rat liver, 190 μM calcium, swelling as decline in A540
T1 construct: Mitochondria were isolated from fresh rat liver; from tissue; host or cells: rat liver mitochondria
T1 sequence (P29117 30-206): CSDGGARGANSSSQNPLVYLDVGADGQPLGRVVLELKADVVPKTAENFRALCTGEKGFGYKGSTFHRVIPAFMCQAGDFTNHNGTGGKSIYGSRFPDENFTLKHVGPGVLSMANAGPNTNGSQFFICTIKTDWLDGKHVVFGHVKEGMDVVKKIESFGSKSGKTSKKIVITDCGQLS
From the text: A mitochondria swelling assay was used to measure the efficacy of NICAMs in blocking CyP-D and mitochondrial permeability transition. Under certain pathological conditions, mitochondria lose the ability to regulate calcium levels, and excessive calcium accumulation in the mitochondrial matrix results in the opening of large pores in the inner mitochondrial membrane. Nonselective conductance of ions and molecules up to 1.5 kilodaltons through the pore, a process called mitochondrial permeability transition, leads to swelling of mitochondria and other events which culminate in cell death. […] In general, mitochondria isolated from rat liver were exposed to calcium to induce MPTP opening in the absence or presence of test compounds, and calcium-induced swelling was measured as a reduction in light absorbance at 540 nm.
Mitochondria were isolated from fresh rat liver. Ice-cold or 4° C. conditions were used throughout all steps of the isolation. The liver was rinsed thoroughly and chopped in a small volume of isolation buffer (IB; 10 mM Hepes, 70 mM sucrose, 210 mM mannitol, 0.5 mM EDTA). Aliquots of the minced liver were homogenized in IB using a Teflon-glass Potter-Elvehjem tissue grinder and passed through a cell screen filter. The filtered homogenate was centrifuged at 600 g for 10 min, then the resulting supernatant centrifuged at 7000 g for 10 min. The supernatant was discarded, and the pellet resuspended in wash buffer (10 mM Hepes, 70 mM sucrose, 210 mM mannitol) and centrifuged a final time at 7000 g for 10 min. The supernatant was discarded, and the mitochondria-containing pellet suspended and stored on ice in 2 mL of respiration buffer (RB; 5 mM Hepes, 70 mM sucrose, 210 mM mannitol, 10 mM sodium succinate, 1 mM sodium phosphate dibasic).
Test compound solutions were prepared from 10 mg/ml stocks (dimethyl sulfoxide vehicle) first by diluting the test compound 1000× into respiration buffer #2 (RB2; 5 mM Hepes, 70 mM sucrose, 210 mM mannitol, 10 mM sodium succinate, 1 mM sodium phosphate dibasic, 1% fetal bovine serum, 2 μM rotenone), then by 3×-serial dilutions in RB2 to achieve test compound concentrations of 10000, 3333, 1111, 370, 123, 41, and 14 ng/mL. Polystyrene tubes and plates were used for all preparations.
Swelling assays were completed in a 96-well flat-bottom polystyrene plates. In each well a 10-μL aliquot of mitochondria suspension, equivalent to 100-200 μg total protein, was combined with 90 μL of test compound, incubated for 10 min, then the baseline absorbance measured on a plate reader (540 nm wavelength; A540). Swelling was induced by adding 5 μL of 4 mM calcium chloride to achieve a final calcium concentration of 190 μM. Mitochondria swelling was indicated by a decline in A540. […] Duplicate samples were assayed for each test compound concentration.
Means and ranges of duplicate samples are shown.

SMILES	Immunosuppression (% Relative to CsA) (human lymphocytes) [%]	CYP-D Inhibition (% Potency Vs CsA) (CyP-D) [%]
CCC1NC(=O)C(C(O)C(C)CC=CCCCCCCC(=O)N(C)C)N(C)C(=O)C(C(C)C)N(C)C(=O)C(CC(C)C)N(C)C(=O)C(CC(C)C)N(C)C(=O)C(C)NC(=O)C(C)NC(=O)C(CC(C)C)N(C)C(=O)C(C(C)C)NC(=O)C(CC(C)C)N(C)C(=O)CN(C)C1=O (centres unmarked) [Compound 420-114]	<1	63.4
C=CCC(O)CCCC(C)C(O)C1C(=O)NC(CC)C(=O)N(C)CC(=O)N(C)C(CC(C)C)C(=O)NC(C(C)C)C(=O)N(C)C(CC(C)C)C(=O)NC(C)C(=O)NC(C)C(=O)N(C)C(CC(C)C)C(=O)N(C)C(CC(C)C)C(=O)N(C)C(C(C)C)C(=O)N1C (centres unmarked) [Compound 420-49-1]	3	143.6
CCC1NC(=O)C(C(O)C(C)CC=CCCCCC(N)=O)N(C)C(=O)C(C(C)C)N(C)C(=O)C(CC(C)C)N(C)C(=O)C(CC(C)C)N(C)C(=O)C(C)NC(=O)C(C)NC(=O)C(CC(C)C)N(C)C(=O)C(C(C)C)NC(=O)C(CC(C)C)N(C)C(=O)CN(C)C1=O (centres unmarked) [Compound 404-164]	–	98.9
CCC1NC(=O)C(C(O)C(C)CC(O)CO)N(C)C(=O)C(C(C)C)N(C)C(=O)C(CC(C)C)N(C)C(=O)C(CC(C)C)N(C)C(=O)C(C)NC(=O)C(C)NC(=O)C(CC(C)C)N(C)C(=O)C(C(C)C)NC(=O)C(CC(C)C)N(C)C(=O)CN(C)C1=O (centres unmarked) [Compound 404-126]	<1	24.6
CCC1NC(=O)C(C(O)C(C)CCCCC(N)=O)N(C)C(=O)C(C(C)C)N(C)C(=O)C(CC(C)C)N(C)C(=O)C(CC(C)C)N(C)C(=O)C(C)NC(=O)C(C)NC(=O)C(CC(C)C)N(C)C(=O)C(C(C)C)NC(=O)C(CC(C)C)N(C)C(=O)CN(C)C1=O (centres unmarked) [Compound 404-130]	<1	114.7
CCC1NC(=O)C(C(O)C(C)CCCCCCCCCNC(=O)OC(C)(C)C)N(C)C(=O)C(C(C)C)N(C)C(=O)C(CC(C)C)N(C)C(=O)C(CC(C)C)N(C)C(=O)C(C)NC(=O)C(C)NC(=O)C(CC(C)C)N(C)C(=O)C(C(C)C)NC(=O)C(CC(C)C)N(C)C(=O)CN(C)C1=O (centres unmarked) [Compound 420-125]	–	42.4
CCCCCCCC=CCC(C)C(O)C1C(=O)NC(CC)C(=O)N(C)CC(=O)N(C)C(CC(C)C)C(=O)NC(C(C)C)C(=O)N(C)C(CC(C)C)C(=O)NC(C)C(=O)NC(C)C(=O)N(C)C(CC(C)C)C(=O)N(C)C(CC(C)C)C(=O)N(C)C(C(C)C)C(=O)N1C (centres unmarked) [Compound 404-44]	1	1.2
CCC1NC(=O)C(C(O)C(C)CC=CCCCCC(=O)N(C)C)N(C)C(=O)C(C(C)C)N(C)C(=O)C(CC(C)C)N(C)C(=O)C(CC(C)C)N(C)C(=O)C(C)NC(=O)C(C)NC(=O)C(CC(C)C)N(C)C(=O)C(C(C)C)NC(=O)C(CC(C)C)N(C)C(=O)CN(C)C1=O (centres unmarked) [Compound 404-154]	2	119.4
CCC1NC(=O)C(C(O)C(C)CC=CCCCCCCCCCC(=O)N(C)C)N(C)C(=O)C(C(C)C)N(C)C(=O)C(CC(C)C)N(C)C(=O)C(CC(C)C)N(C)C(=O)C(C)NC(=O)C(C)NC(=O)C(CC(C)C)N(C)C(=O)C(C(C)C)NC(=O)C(CC(C)C)N(C)C(=O)CN(C)C1=O (centres unmarked) [Compound 420-104]	11	55.8
CCC1NC(=O)C(C(O)C(C)CC=CCCCCCCNC(=O)OC(C)(C)C)N(C)C(=O)C(C(C)C)N(C)C(=O)C(CC(C)C)N(C)C(=O)C(CC(C)C)N(C)C(=O)C(C)NC(=O)C(C)NC(=O)C(CC(C)C)N(C)C(=O)C(C(C)C)NC(=O)C(CC(C)C)N(C)C(=O)CN(C)C1=O (centres unmarked) [Compound 420-120]	3	9.4
CCC1NC(=O)C(C(O)C(C)CCCCCCCCO)N(C)C(=O)C(C(C)C)N(C)C(=O)C(CC(C)C)N(C)C(=O)C(CC(C)C)N(C)C(=O)C(C)NC(=O)C(C)NC(=O)C(CC(C)C)N(C)C(=O)C(C(C)C)NC(=O)C(CC(C)C)N(C)C(=O)CN(C)C1=O (centres unmarked) [Compound 420-112]	2	106.7
CCCNC(=O)CCC=CCC(C)C(O)C1C(=O)NC(CC)C(=O)N(C)CC(=O)N(C)C(CC(C)C)C(=O)NC(C(C)C)C(=O)N(C)C(CC(C)C)C(=O)NC(C)C(=O)NC(C)C(=O)N(C)C(CC(C)C)C(=O)N(C)C(CC(C)C)C(=O)N(C)C(C(C)C)C(=O)N1C (centres unmarked) [Compound 404-178]	<1	71.3
CCC1NC(=O)C(C(O)C(C)CCCO)N(C)C(=O)C(C(C)C)N(C)C(=O)C(CC(C)C)N(C)C(=O)C(CC(C)C)N(C)C(=O)C(C)NC(=O)C(C)NC(=O)C(CC(C)C)N(C)C(=O)C(C(C)C)NC(=O)C(CC(C)C)N(C)C(=O)CN(C)C1=O (centres unmarked) [Compound 420-28]	<1	78.0
CCC1NC(=O)C(C(O)C(C)CC=CCCC#N)N(C)C(=O)C(C(C)C)N(C)C(=O)C(CC(C)C)N(C)C(=O)C(CC(C)C)N(C)C(=O)C(C)NC(=O)C(C)NC(=O)C(CC(C)C)N(C)C(=O)C(C(C)C)NC(=O)C(CC(C)C)N(C)C(=O)CN(C)C1=O (centres unmarked) [Compound 404-194]	2	123.2
CCC1NC(=O)C(C(O)C(C)CC=CCCC(=O)N(C)C)N(C)C(=O)C(C(C)C)N(C)C(=O)C(CC(C)C)N(C)C(=O)C(CC(C)C)N(C)C(=O)C(C)NC(=O)C(C)NC(=O)C(CC(C)C)N(C)C(=O)C(C(C)C)NC(=O)C(CC(C)C)N(C)C(=O)CN(C)C1=O (centres unmarked) [Compound 404-157]	<1	142.3
CCC(O)CCCC(C)C(O)C1C(=O)NC(CC)C(=O)N(C)CC(=O)N(C)C(CC(C)C)C(=O)NC(C(C)C)C(=O)N(C)C(CC(C)C)C(=O)NC(C)C(=O)NC(C)C(=O)N(C)C(CC(C)C)C(=O)N(C)C(CC(C)C)C(=O)N(C)C(C(C)C)C(=O)N1C (centres unmarked) [Compound 404-195]	2	143.1
CCC1NC(=O)C(C(O)C(C)CCCCC(=O)N(CC)CC)N(C)C(=O)C(C(C)C)N(C)C(=O)C(CC(C)C)N(C)C(=O)C(CC(C)C)N(C)C(=O)C(C)NC(=O)C(C)NC(=O)C(CC(C)C)N(C)C(=O)C(C(C)C)NC(=O)C(CC(C)C)N(C)C(=O)CN(C)C1=O (centres unmarked) [Compound 404-85]	2	128.7
CCC1NC(=O)C(C(O)C(C)CCCC(C)O)N(C)C(=O)C(C(C)C)N(C)C(=O)C(CC(C)C)N(C)C(=O)C(CC(C)C)N(C)C(=O)C(C)NC(=O)C(C)NC(=O)C(CC(C)C)N(C)C(=O)C(C(C)C)NC(=O)C(CC(C)C)N(C)C(=O)CN(C)C1=O (centres unmarked) [Compound 404-98]	3	162.7
CCCC=CCC(C)C(O)C1C(=O)NC(CC)C(=O)N(C)CC(=O)N(C)C(CC(C)C)C(=O)NC(C(C)C)C(=O)N(C)C(CC(C)C)C(=O)NC(C)C(=O)NC(C)C(=O)N(C)C(CC(C)C)C(=O)N(C)C(CC(C)C)C(=O)N(C)C(C(C)C)C(=O)N1C (centres unmarked) [Compound 404-26]	–	58.4
